# Measured values from ChEMBL document CHEMBL4422618, “Translational impact of novel widely pharmacological characterized mofezolac-derived COX-1 inhibitors combined with bortezomib on human multiple myeloma cell lines viability” (Eur J Med Chem, 2019).
# Active and inactive are the calls of the source. The calls are words filed in the database; no cut-off is given here.
# Key:
# NCI-H929 [1] = experiment: Potentiation of bortezomib-induced cytotoxicity against human NCI-H929 cells assessed as reduction in cell viability at 42 nM after 48 hrs in presence of bortezomib by CCK8 assay; type: functional, cell-based
# NCI-H929 [2] = experiment: Induction of apoptosis in human NCI-H929 cells assessed as late apoptotic cells at 1.7 uM after 48 hrs in presence of bortezomib by Annexin-V/propidium iodide staining based flow cytometric method (reference value: 0.23%); type: functional
# [3] = Mutagenicity in Salmonella typhimurium TA100 at 500 uM by Ames test; type: toxicity; details: salmonella enterica subsp. enterica serovar typhimurium
# NCI-H929 [4] = experiment: Induction of apoptosis in human NCI-H929 cells assessed as viable cells at 1.7 uM after 48 hrs in presence of bortezomib by Annexin-V/propidium iodide staining based flow cytometric method (reference value: 82.6%); type: functional; details: NCI-H929, 48 h, read-out: Activity
# RPMI-8226 [5] = experiment: Cell cycle arrest in human RPMI8226 cells assessed as accumulation at G0/G1 phase at 1.7 uM after 48 hrs by propidium iodide/RNase staining based flow cytometric method; type: functional
# Plasma [6] = experiment: Anticoagulant activity in human platelet poor plasma assessed as prothrombin time at 100 uM incubated for 15 mins at room temperature and subsequent incubation for 2 mins at 37 degreeC followed by PBS addition and measured after 3 mins for every secs in presence of calcium thromboplastin; type: functional
# RPMI-8226 [7] = experiment: Cytotoxicity against human RPMI8226 cells assessed as reduction in cell viability at […] after 48 hrs by CCK8 assay relative to control; type: functional
# [8] = Genotoxicity in Escherichia coli PQ35 at 500 uM after overnight incubation by SOS chromotest; type: toxicity
# [9] = Mutagenicity in Salmonella typhimurium TA102 at 500 uM by Ames test; type: toxicity; details: salmonella enterica subsp. enterica serovar typhimurium
# RPMI-8226 [10] = experiment: Induction of apoptosis in human RPMI8226 cells assessed as viable cells at 1.7 uM after 48 hrs in presence of bortezomib by Annexin-V/propidium iodide staining based flow cytometric method (reference value: 98.7%); type: functional; details: RPMI-8226, 48 h, read-out: Activity
# Platelet = experiment: Antiplatelet activity in human platelet rich plasma assessed as inhibition of arachidonic acid-induced platelet aggregation preincubated for 2 mins followed by arachidonic acid addition by turbidimetric method; type: functional, cell-based
# NCI-H929 [11] = experiment: Induction of apoptosis in human NCI-H929 cells assessed as necrotic cells at 1.7 uM after 48 hrs by Annexin-V/propidium iodide staining based flow cytometric method (reference value: 0.0034%); type: functional
# NCI-H929 [12] = experiment: Induction of apoptosis in human NCI-H929 cells assessed as necrotic cells at 1.7 uM after 48 hrs in presence of bortezomib by Annexin-V/propidium iodide staining based flow cytometric method (reference value: 0.0034%); type: functional
# [13] = Hemolytic activity in erythrocytes (unknown origin) at 100 uM after 3 hrs by spectrophotometric analysis; type: ADME, cell-based, Erythrocyte; details: read-out: Activity
# RPMI-8226 [14] = experiment: Induction of apoptosis in human RPMI8226 cells assessed as necrotic cells at 1.7 uM after 48 hrs in presence of bortezomib by Annexin-V/propidium iodide staining based flow cytometric method (reference value: 0.090%); type: functional
# Plasma [15] = experiment: Anticoagulant activity in human platelet poor plasma assessed as activated partial thromboplastin time at 100 uM incubated for 15 mins at room temperature and subsequent incubation for 2 mins at 37 degreeC followed by cephalin addition and measured after 2 mins for every secs in presence of CaCl2; type: functional
# RPMI-8226 [16] = experiment: Cell cycle arrest in human RPMI8226 cells assessed as accumulation at S phase at 1.7 uM after 48 hrs by propidium iodide/RNase staining based flow cytometric method; type: functional
# RPMI-8226 [17] = experiment: Cell cycle arrest in human RPMI8226 cells assessed as accumulation at S phase at 1.7 uM in presence of bortezomib after 48 hrs by propidium iodide/RNase staining based flow cytometric method relative to bortezomib; type: functional
# RPMI-8226 [18] = experiment: Cell cycle arrest in human RPMI8226 cells assessed as accumulation at G0/G1 phase at 1.7 uM in presence of bortezomib after 48 hrs by propidium iodide/RNase staining based flow cytometric method relative to bortezomib; type: functional
# NCI-H929 [19] = experiment: Potentiation of bortezomib-induced cytotoxicity against human NCI-H929 cells assessed as reduction in cell viability at […] after 48 hrs in presence of bortezomib by CCK8 assay; type: functional, cell-based
# RPMI-8226 [20] = experiment: Induction of apoptosis in human RPMI8226 cells assessed as early apoptotic cells at 1.7 uM after 48 hrs in presence of bortezomib by Annexin-V/propidium iodide staining based flow cytometric method (reference value: 1.05%); type: functional
# RPMI-8226 [21] = experiment: Induction of apoptosis in human RPMI8226 cells assessed as late apoptotic cells at 1.7 uM after 48 hrs in presence of bortezomib by Annexin-V/propidium iodide staining based flow cytometric method (reference value: 0.21%); type: functional
# [22] = Genotoxicity in Escherichia coli PQ37 at 500 uM after overnight incubation by SOS chromotest; type: toxicity
# NCI-H929 [23] = experiment: Induction of apoptosis in human NCI-H929 cells assessed as early apoptotic cells at 1.7 uM after 48 hrs by Annexin-V/propidium iodide staining based flow cytometric method (reference value: 17.1%); type: functional
# [24] = Mutagenicity in Salmonella typhimurium TA97 at 500 uM by Ames test; type: toxicity; details: salmonella enterica subsp. enterica serovar typhimurium
# [25] = Mutagenicity in Salmonella typhimurium TA98 at 500 uM by Ames test; type: toxicity; details: salmonella enterica subsp. enterica serovar typhimurium
# NCI-H929 [26] = experiment: Induction of apoptosis in human NCI-H929 cells assessed as early apoptotic cells at 1.7 uM after 48 hrs in presence of bortezomib by Annexin-V/propidium iodide staining based flow cytometric method (reference value: 17.1%); type: functional
# NCI-H929 [27] = experiment: Induction of apoptosis in human NCI-H929 cells assessed as viable cells at 1.7 uM after 48 hrs by Annexin-V/propidium iodide staining based flow cytometric method (reference value: 82.6%); type: functional; details: NCI-H929, 48 h, read-out: Activity
# RPMI-8226 [28] = experiment: Potentiation of bortezomib-induced cytotoxicity against human RPMI8226 cells assessed as reduction in cell viability at 1.7 uM after 48 hrs in presence of bortezomib by CCK8 assay; type: functional
# NCI-H929 [29] = experiment: Induction of apoptosis in human NCI-H929 cells assessed as late apoptotic cells at 1.7 uM after 48 hrs by Annexin-V/propidium iodide staining based flow cytometric method (reference value: 0.23%); type: functional
# RPMI-8226 [30] = experiment: Cell cycle arrest in human RPMI8226 cells assessed as reduction in accumulation at G2/M phase at 1.7 uM in presence of bortezomib after 48 hrs by propidium iodide/RNase staining based flow cytometric method relative to bortezomib; type: functional
smiles,measurement,setting,value
CC(=O)Oc1ccccc1C(=O)O [ASPIRIN],Activity,NCI-H929 [1],inactive
same,Activity,NCI-H929 [2],0.12%
same,Activity,[3],Non-Toxic
same,viability at 1.7 µM,NCI-H929 [4],45.2%
same,Activity,RPMI-8226 [5],inactive
same,PT,Plasma [6],14.6 s
same,Activity,RPMI-8226 [7],7%
same,Activity,[8],Non-Toxic
same,Activity,[9],Non-Toxic
same,viability at 1.7 µM,RPMI-8226 [10],91.6%
same,IC50,Platelet,1110 nM
same,Activity,NCI-H929 [11],0.016%
same,Activity,NCI-H929 [12],0.026%
same,"hemolysis at 3 h, 100 µM",[13],0%
same,Activity,RPMI-8226 [14],0.014%
same,APTT,Plasma [15],50.3 s
same,Activity,RPMI-8226 [16],inactive
same,Activity,RPMI-8226 [17],Active
same,Activity,RPMI-8226 [18],Active
same,Activity,NCI-H929 [19],inactive
same,Activity,RPMI-8226 [20],7.95%
same,Activity,RPMI-8226 [21],0.48%
same,Activity,[22],Non-Toxic
same,Activity,NCI-H929 [23],16%
same,Activity,[24],Non-Toxic
same,Activity,[25],Non-Toxic
same,Activity,NCI-H929 [26],54.6%
same,viability at 1.7 µM,NCI-H929 [27],83.9%
same,Activity,RPMI-8226 [28],66%
same,Activity,NCI-H929 [29],0.072%
same,Activity,RPMI-8226 [30],Active
